# From patent publication US20250144067A1, “PERSONALIZED STARVATION THERAPY FOR CANCER” (Faeth Therapeutics, Inc., priority 2021, published 2025)
# Where a name gives a salt, the structure may show the parent alone.
# Legend:
# [1] = system: NCI-H292 lung cancer cells; assay: FDA drug screening, complete media vs cholesterol-free media without statin (TABLE 1); type: cell-based, human
# [2] = system: NCI-H292 lung cancer cells; assay: FDA drug screening, complete media vs cholesterol-free media with simvastatin (TABLE 2); type: cell-based, human; details: for Cholesterol-free media + simvastatin (0.04 μM) / Complete Media: NCI-H292 cells
# [3] = Complete minus Cholesterol-free, greater than 0 enhanced anti-cancer activity, about 0 neutral, below 0 antagonists
# [4] = NCI-H292 cells in cholesterol-free media without statin
# [5] = NCI-H292 cells in complete media
# [6] = cholesterol-free media with simvastatin 0.04 μM, cell growth value in FDA drug screen
# [7] = complete media, cell growth value in FDA drug screen
# [8] = complete media minus cholesterol-free media + simvastatin, >0 enhanced anti-cancer activity, about 0 neutral, <0 antagonist
# [9] = NCI-H292 cells, cholesterol-free media without statin, FDA drug library screen
# [10] = NCI-H292 cells, complete media, FDA drug library screen
# [11] = complete vs cholesterol-free media, >0 enhanced anti-cancer activity, about 0 neutral, <0 antagonist
# [12] = FDA drug library screen, cholesterol-free media with simvastatin 0.04 μM
# [13] = FDA drug library screen, complete media
# [14] = Complete minus Cholesterol-free, greater than 0 enhanced anti-cancer activity, about 0 neutral, below 0 antagonist
# [15] = NCI-H292 cells, FDA drug library screen, cholesterol-free media without statin
# [16] = NCI-H292 cells, FDA drug library screen, complete media
# [17] = FDA library drug in cholesterol-free media with simvastatin 0.04 μM
# [18] = FDA library drug in complete media
# [19] = complete media vs cholesterol-free media + simvastatin (0.04 μM), >0 enhanced anti-cancer activity, about 0 neutral, <0 antagonist
# [20] = Complete minus Cholesterol-free, >0 enhanced anti-cancer activity, about 0 neutral, <0 antagonist
# [21] = NCI-H292 cells, cholesterol-free media without statin
# [22] = drug in cholesterol-free media with simvastatin 0.04 μM
# [23] = cholesterol-free media with simvastatin 0.04 μM, FDA drug library screen (TABLE 2)
# [24] = complete media, FDA drug library screen (TABLE 2)
# [25] = complete media minus cholesterol-free media + simvastatin (0.04 μM), >0 enhanced anti-cancer activity, about 0 neutral, <0 antagonist
# [26] = complete vs cholesterol-free media, greater than 0 enhanced anti-cancer activity, about 0 neutral, below 0 antagonists
compound,measurement,setting,value
COC(=O)[C@@H]1[C@H]2C[C@H]3c4[nH]c5ccccc5c4CCN3C[C@@H]2CC[C@@H]1O [Yohimbine (Hydrochloride)],Difference,[1]; [3],−0.74
same,Cholesterol-free,[1]; [4],1.558
same,Complete,[1]; [5],0.818
same,Cholesterol-free media + simvastatin (0.04 μM),[2]; [6],1.051
same,Complete Media,[2]; [7],1.067
same,Difference,[2]; [8],0.02
O=C(O)c1cc(=O)c2c(OCC(O)COc3cccc4oc(C(=O)O)cc(=O)c34)cccc2o1 [Cromolyn (sodium)],Difference,[1]; [3],−0.63
same,Cholesterol-free,[1]; [4],1.66
same,Complete,[1]; [5],1.032
same,Cholesterol-free media + simvastatin (0.04 μM),[2]; [6],0.821
same,Complete Media,[2]; [7],0.9131
same,Difference,[2]; [8],0.09
Cc1ncc(CSSCc2cnc(C)c(O)c2CO)c(CO)c1O [Pyrithioxin (dihydrochloride)],Cholesterol-free,[1]; [9],0.8349
same,Complete,[1]; [10],1.062
same,Difference,[1]; [11],0.23
same,Cholesterol-free media + simvastatin (0.04 μM),[2]; [12],0.9622
same,Complete Media,[2]; [13],1.11
same,Difference,[2]; [8],0.15
Cc1cccc(C(C)c2cnc[nH]2)c1C (centres unmarked) [Medetomidine],Difference,[1]; [14],−0.10
same,Cholesterol-free,[1]; [15],1.034
same,Complete,[1]; [16],0.9342
same,Cholesterol-free media + simvastatin (0.04 μM),[2]; [17],1.094
same,Complete Media,[2]; [18],0.8138
same,Difference,[2]; [19],−0.28
Nc1ccn([C@H]2CC[C@@H](CO)O2)c(=O)n1 [Zalcitabine],Difference,[1]; [20],−0.22
same,Cholesterol-free,[1]; [21],1.156
same,Complete,"[1]; NCI-H292 cells, complete media",0.9405
same,Cholesterol-free media + simvastatin (0.04 μM),[2]; [6],1.825
same,Complete Media,[2]; [7],1.89
same,Difference,[2]; [8],0.06
O=C1[C@H](CC[C@H](O)c2ccc(F)cc2)[C@@H](c2ccc(O)cc2)N1c1ccc(F)cc1 [Ezetimibe],Difference,[1]; [3],−0.66
same,Cholesterol-free,[1]; [4],1.871
same,Complete,[1]; [5],1.209
same,Cholesterol-free media + simvastatin (0.04 μM),[2]; [6],1.247
same,Complete Media,[2]; [7],1.268
same,Difference,[2]; [8],0.02
CC(=O)Oc1cccc2c1C(=O)c1c(OC(C)=O)cc(C(=O)O)cc1C2=O [Diacerein],Difference,[1]; [14],−0.13
same,Cholesterol-free,[1]; [15],1.078
same,Complete,[1]; [16],0.9444
same,Cholesterol-free media + simvastatin (0.04 μM),[2]; [22],1.08
same,Complete Media,[2]; drug in complete media,0.9105
same,Difference,[2]; [19],−0.17
CCCCc1nc(C)c(CC(=S)N(C)C)c(=O)n1Cc1ccc(-c2ccccc2-c2nnn[nH]2)cc1 [Fimasartan],Difference,[1]; [14],−0.08
same,Cholesterol-free,[1]; [15],1.327
same,Complete,[1]; [16],1.249
same,Cholesterol-free media + simvastatin (0.04 μM),[2]; [23],1.27
same,Complete Media,[2]; [24],1.222
same,Difference,[2]; [25],−0.05
CC(=O)OCC(=O)[C@@]1(O)CC[C@H]2[C@@H]3CCC4=CC(=O)CC[C@]4(C)[C@H]3[C@@H](O)C[C@@]21C [Hydrocortisone acetate],Difference,[1]; [20],−0.20
same,Cholesterol-free,[1]; [21],0.8261
same,Complete,"[1]; NCI-H292 cells, complete media",0.6264
same,Cholesterol-free media + simvastatin (0.04 μM),[2]; [12],0.7827
same,Complete Media,[2]; [13],0.63
same,Difference,[2]; [19],−0.15
Aliskiren (hemifumarate),Cholesterol-free,[1]; [21],1.354
same,Complete,"[1]; NCI-H292 cells, complete media",0.9547
same,Difference,[1]; [26],−0.40
same,Cholesterol-free media + simvastatin (0.04 μM),[2]; [6],0.7275
same,Complete Media,[2]; [7],0.8337
same,Difference,[2]; [8],0.11
CCN1CCN(C(=O)N[C@@H](C(=O)N[C@@H]2C(=O)N3C(C(=O)O)=C(CSc4nnnn4C)CS[C@H]23)c2ccc(O)cc2)C(=O)C1=O [Cefoperazone],Cholesterol-free,[1]; [9],0.8233
same,Complete,[1]; [10],1.132
same,Difference,[1]; [11],0.31
same,Cholesterol-free media + simvastatin (0.04 μM),[2]; [12],1.061
same,Complete Media,[2]; [13],1.748
same,Difference,[2]; [8],0.69
Cl.NCCC[C@](N)(C(=O)O)C(F)F [L-Eflornithine (monohydrochloride)],Difference,[1]; [20],0.02
same,Cholesterol-free,[1]; [9],0.8255
same,Complete,[1]; [10],0.8469
same,Cholesterol-free media + simvastatin (0.04 μM),[2]; [23],1.266
same,Complete Media,[2]; [24],1.268
same,Difference,[2]; [25],0.00
NC[C@H]1O[C@H](O[C@H]2[C@H](O)[C@@H](O[C@H]3O[C@H](CO)[C@@H](O)[C@H](N)[C@H]3O)[C@H](N)C[C@@H]2N)[C@H](N)C[C@@H]1O [Tobramycin],Cholesterol-free,[1]; [9],1.416
same,Complete,[1]; [10],1.802
same,Difference,[1]; [11],0.39
same,Cholesterol-free media + simvastatin (0.04 μM),[2]; [6],0.8625
same,Complete Media,[2]; [7],0.9069
same,Difference,[2]; [8],0.04
CO/N=C(\C(=O)N[C@@H]1C(=O)N2C(C(=O)[O-])=C(C[N+]3(C)CCCC3)CS[C@H]12)c1csc(N)n1 [Cefepime (Dihydrochloride Monohydrate)],Difference,[1]; [3],−0.52
same,Cholesterol-free,[1]; [4],1.209
same,Complete,[1]; [5],0.6874
same,Cholesterol-free media + simvastatin (0.04 μM),[2]; [12],1.15
same,Complete Media,[2]; [13],1.537
same,Difference,[2]; [8],0.39
CC1=C(/C=C/C(C)=C/C=C/C(C)=C/C(=O)O)C(C)(C)CCC1 [Retinoic acid],Difference,[1]; [3],−0.66
same,Cholesterol-free,[1]; [4],1.248
same,Complete,[1]; [5],0.5841
same,Cholesterol-free media + simvastatin (0.04 μM),[2]; [12],0.9194
same,Complete Media,[2]; [13],1.253
same,Difference,[2]; [8],0.33
O=C(NCCO[N+](=O)[O-])c1cccnc1 [Nicorandil],Cholesterol-free,[1]; [9],0.8284
same,Complete,[1]; [10],1.354
same,Difference,[1]; [11],0.53
same,Cholesterol-free media + simvastatin (0.04 μM),[2]; [6],0.9809
same,Complete Media,[2]; [7],1.055
same,Difference,[2]; [8],0.07
Cc1c(OCC(F)(F)F)ccnc1C[S+]([O-])c1nc2ccccc2[nH]1 (centres unmarked) [Lansoprazole],Cholesterol-free,[1]; [21],1.34
same,Complete,"[1]; NCI-H292 cells, complete media",0.9564
same,Difference,[1]; [26],−0.38
same,Cholesterol-free media + simvastatin (0.04 μM),[2]; [17],1.103
same,Complete Media,[2]; [18],0.6471
same,Difference,[2]; [19],−0.46
Estradiol (cypionate),Difference,"[1]; Complete minus Cholesterol-free, […]",−0.22
same,Cholesterol-free,[1]; [21],1.127
same,Complete,"[1]; NCI-H292 cells, complete media",0.9066
same,Cholesterol-free media + simvastatin (0.04 μM),[2]; [12],0.9809
same,Complete Media,[2]; [13],0.8945
same,Difference,"[2]; complete media vs cholesterol-free media + simvastatin (0.04 μM), […]",−0.09
CO[C@@]1(NC(=O)C2SC(=C(C(N)=O)C(=O)O)S2)C(=O)N2C(C(=O)O)=C(CSc3nnnn3C)CS[C@@H]21 (some centres unmarked) [Cefotetan],Difference,[1]; [20],−0.26
same,Cholesterol-free,[1]; [21],1.196
same,Complete,"[1]; NCI-H292 cells, complete media",0.9309
same,Cholesterol-free media + simvastatin (0.04 μM),[2]; [22],1.2
same,Complete Media,[2]; drug in complete media,1.027
same,Difference,[2]; [19],−0.17
NC(=O)N[C@@H](CCC(=O)O)C(=O)O [Carglumic Acid],Difference,[1]; [14],−0.10
same,Cholesterol-free,[1]; [15],1.036
same,Complete,[1]; [16],0.9389
same,Cholesterol-free media + simvastatin (0.04 μM),[2]; [12],0.9383
same,Complete Media,[2]; [13],1.207
same,Difference,[2]; [8],0.27
CC(C)(C)C(=O)OCOC(=O)[C@@H]1N2C(=O)[C@@H](/N=C/N3CCCCCC3)[C@H]2SC1(C)C [Pivmecillinam (hydrochloride)],Difference,[1]; [3],−0.49
same,Cholesterol-free,[1]; [4],1.646
same,Complete,[1]; [5],1.161
same,Cholesterol-free media + simvastatin (0.04 μM),[2]; [22],1.219
same,Complete Media,[2]; drug in complete media,1.044
same,Difference,[2]; [19],−0.18
NC(=O)c1cc[n+](CC2=C(C(=O)O)N3C(=O)[C@@H](NC(=O)[C@@H](c4ccccc4)S(=O)(=O)[O-])[C@H]3SC2)cc1 [Cefsulodin (sodium)],Cholesterol-free,[1]; [21],1.045
same,Complete,"[1]; NCI-H292 cells, complete media",0.6569
same,Difference,[1]; [26],−0.39
same,Cholesterol-free media + simvastatin (0.04 μM),[2]; [12],1.191
same,Complete Media,[2]; [13],1.113
same,Difference,[2]; [19],−0.08
CC(C)(C(=O)c1cccnc1)c1cccnc1 [Metyrapone],Cholesterol-free,[1]; [21],1.096
same,Complete,"[1]; NCI-H292 cells, complete media",0.7386
same,Difference,[1]; [26],−0.36
same,Cholesterol-free media + simvastatin (0.04 μM),[2]; [6],0.9563
same,Complete Media,[2]; [7],1.066
same,Difference,[2]; [8],0.11
COc1cccc2c1C(=O)c1c(O)c3c(c(O)c1C2=O)C[C@@](O)(C(=O)CO)C[C@@H]3O[C@H]1C[C@H](N)[C@H](O)[C@H](C)O1 [Doxorubicin (hydrochloride)],Cholesterol-free,[1]; [9],−0.08252
same,Complete,[1]; [10],−0.006007
same,Difference,[1]; [11],0.08
same,Cholesterol-free media + simvastatin (0.04 μM),[2]; [23],0.09054
same,Complete Media,[2]; [24],0.01994
same,Difference,[2]; [25],−0.07
COc1ccc(NC(=O)c2ccc(C(=N)N(C)C)cc2)c(C(=O)Nc2ccc(Cl)cn2)c1 [Betrixaban],Cholesterol-free,[1]; [9],0.6104
same,Complete,[1]; [10],1.062
same,Difference,[1]; [11],0.45
same,Cholesterol-free media + simvastatin (0.04 μM),[2]; [17],1.424
same,Complete Media,[2]; [18],0.7486
same,Difference,[2]; [19],−0.68
O=C(Nc1ccc([N+](=O)[O-])cc1Cl)c1cc(Cl)ccc1O [Niclosamide],Cholesterol-free,[1]; [21],0.9593
same,Complete,"[1]; NCI-H292 cells, complete media",0.6271
same,Difference,[1]; [26],−0.33
same,Cholesterol-free media + simvastatin (0.04 μM),[2]; [12],0.365
same,Complete Media,[2]; [13],1.031
same,Difference,[2]; [8],0.67
Spiramycin,Difference,[1]; [3],−1.20
same,Cholesterol-free,[1]; [4],2.038
same,Complete,[1]; [5],0.8421
same,Cholesterol-free media + simvastatin (0.04 μM),[2]; [22],1.277
same,Difference,[2]; [19],−0.16
CN(C)CCOC(=O)C(c1ccccc1)C1(O)CCCC1 (centres unmarked) [Cyclopentolate (hydrochloride)],Difference,[1]; [3],−0.56
same,Cholesterol-free,[1]; [4],1.412
same,Complete,[1]; [5],0.8527
same,Cholesterol-free media + simvastatin (0.04 μM),[2]; [22],1.064
same,Complete Media,[2]; drug in complete media,0.8727
same,Difference,[2]; [19],−0.19
